According to US11028088B2, “Modulators of BTK proteolysis and methods of use” (Yale University, priority 2018, dated 2021):
Structures can show the parent of a compound that is named as a salt. Where two headings read alike, the source gives them in different places.

Key:
BTK = BTK (Homo sapiens, UniProt Q06187); experiment: BTK degradation in NAMALWA cells (immunoblot); type: cell-based; set-up: host or cells: NAMALWA; conditions: NAMALWA cells; for DC50: concentration needed to degrade 50% of the total pool of BTK
Sequence of BTK (Q06187 whole entry): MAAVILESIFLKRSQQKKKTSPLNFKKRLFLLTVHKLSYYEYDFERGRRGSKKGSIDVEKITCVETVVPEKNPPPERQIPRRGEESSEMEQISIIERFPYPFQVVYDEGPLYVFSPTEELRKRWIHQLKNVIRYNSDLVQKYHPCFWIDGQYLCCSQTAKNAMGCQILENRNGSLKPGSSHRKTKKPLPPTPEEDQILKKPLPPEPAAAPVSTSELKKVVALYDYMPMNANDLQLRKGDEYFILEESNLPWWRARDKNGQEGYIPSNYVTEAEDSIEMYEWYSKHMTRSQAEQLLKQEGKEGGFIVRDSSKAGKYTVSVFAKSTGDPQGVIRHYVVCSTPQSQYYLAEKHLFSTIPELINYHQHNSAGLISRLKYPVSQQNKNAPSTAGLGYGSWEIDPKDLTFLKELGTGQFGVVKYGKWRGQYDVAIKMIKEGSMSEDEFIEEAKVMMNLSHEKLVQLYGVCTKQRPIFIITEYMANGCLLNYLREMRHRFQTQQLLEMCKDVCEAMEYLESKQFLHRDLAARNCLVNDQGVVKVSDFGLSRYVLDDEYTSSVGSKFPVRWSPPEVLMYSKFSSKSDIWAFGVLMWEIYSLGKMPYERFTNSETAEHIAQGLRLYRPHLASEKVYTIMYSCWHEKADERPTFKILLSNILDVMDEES
Description: NAMALWA and Jurkat cell lines were purchased from ATCC and cultured according to supplier guidelines at 37° C. […] Wild-type and C481S BTK XLA cell lines were cultured as previously described (39). Written, informed consent was obtained prior to the collection of cells from CLL patients using the IWCLL2008 criteria. Isolation of mononuclear cells from peripheral blood was prepared using density gradient centrifugation. B-cells were then negatively selected ([…] Technologies). […] They were maintained at 37° C. in 5% CO2.
Lysates were spun at 15,000×g for 10 min at 4° C. and supernatant was quantified for total protein content using the Pierce BCA Protein Assay (Thermo Fisher Scientific).
Either anti-rabbit or anti-mouse HRP-conjugated secondary antibodies (Pierce) were incubated with the membranes for 1 h at room temperature at 1:10,000 dilutions in 5% non-fat milk in IX TBS-T. Imaging was performed using the ECL Prime chemiluminescent western blot detection reagents (Amersham) followed by visualization with the Bio-Rad ChemiDoc imaging instrument. All western blots were subsequently processed and quantified using the accompanying Bio-Rad Image Lab software. […] All antibodies were used at 1:1,000 dilutions in 5% non-fat milk in 1×TBS-Tween (TBS-T) or Blotto blocker (Thermo Scientific) unless otherwise noted in supplier specifications.

HER3 = molecular target: T1, HER3 (Homo sapiens, UniProt P21860); experiment: HER3/ERBB3 degradation (western blot, OVCAR8 cells); type: cell-based
T1 construct: endogenous in cells; host or cells: OVCAR8
T1 sequence (P21860 20-1342): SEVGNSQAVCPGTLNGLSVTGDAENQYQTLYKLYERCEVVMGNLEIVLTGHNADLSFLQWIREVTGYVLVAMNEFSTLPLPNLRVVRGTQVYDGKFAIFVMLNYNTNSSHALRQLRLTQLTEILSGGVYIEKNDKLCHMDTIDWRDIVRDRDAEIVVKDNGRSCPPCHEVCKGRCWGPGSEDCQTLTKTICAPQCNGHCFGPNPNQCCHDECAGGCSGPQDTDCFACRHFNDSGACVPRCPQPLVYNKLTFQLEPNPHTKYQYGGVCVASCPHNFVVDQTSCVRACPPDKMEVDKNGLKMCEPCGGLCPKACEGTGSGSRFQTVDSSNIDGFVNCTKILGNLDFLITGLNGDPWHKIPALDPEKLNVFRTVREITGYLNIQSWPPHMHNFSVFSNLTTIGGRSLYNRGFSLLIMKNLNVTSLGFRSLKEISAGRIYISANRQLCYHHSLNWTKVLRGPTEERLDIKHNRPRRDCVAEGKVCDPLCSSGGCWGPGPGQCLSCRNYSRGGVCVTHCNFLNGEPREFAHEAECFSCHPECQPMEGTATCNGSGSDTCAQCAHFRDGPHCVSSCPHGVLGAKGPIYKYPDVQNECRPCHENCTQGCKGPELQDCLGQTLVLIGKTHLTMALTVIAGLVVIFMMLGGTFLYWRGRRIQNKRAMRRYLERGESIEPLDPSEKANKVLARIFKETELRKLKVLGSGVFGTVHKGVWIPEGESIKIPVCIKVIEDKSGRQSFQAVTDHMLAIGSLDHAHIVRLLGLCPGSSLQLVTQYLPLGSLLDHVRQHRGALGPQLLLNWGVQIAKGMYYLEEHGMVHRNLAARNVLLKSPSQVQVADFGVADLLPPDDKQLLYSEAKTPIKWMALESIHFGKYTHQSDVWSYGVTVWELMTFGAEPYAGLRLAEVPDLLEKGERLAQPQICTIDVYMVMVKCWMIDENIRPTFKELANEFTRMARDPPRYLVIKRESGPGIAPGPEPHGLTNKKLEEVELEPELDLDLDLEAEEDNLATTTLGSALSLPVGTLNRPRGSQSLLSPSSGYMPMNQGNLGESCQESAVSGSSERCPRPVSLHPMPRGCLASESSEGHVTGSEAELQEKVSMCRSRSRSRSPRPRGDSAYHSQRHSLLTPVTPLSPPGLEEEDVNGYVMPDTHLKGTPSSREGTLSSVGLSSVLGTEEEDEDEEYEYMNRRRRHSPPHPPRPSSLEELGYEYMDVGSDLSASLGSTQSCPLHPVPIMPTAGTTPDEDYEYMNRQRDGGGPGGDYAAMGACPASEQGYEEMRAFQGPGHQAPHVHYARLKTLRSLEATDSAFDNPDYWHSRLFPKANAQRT
Description: FIG. 10 illustrates a Western blot of Compound 102-related degradation of ERBB3.
In various embodiments, treatment with PROTAC was performed in one of two ways: 1) For experiments involving >16 h exposure to compound, a 1000× stock was added to cells followed by gentle agitation; 2) For shorter treatments, a 2× stock was added to an equal volume of cells to ensure uniform drug exposure. For immortalized cell lines, 2×10^6 cells per treatment condition were collected and washed once with ice cold PBS (IX), followed by lysis in buffer containing 20 mM Tris [pH 8.0], 0.25% sodium deoxycholate, 1% Triton X-100, supplemented with protease (Roche) and phosphatase inhibitors (10 mM NaF, 2 mM Na3VO4, 10 mM β-glycerophosphate, 10 mM Na-pyrophosphate). Lysates were spun at 15,000×g for 10 min at 4° C. and supernatant was quantified for total protein content using the Pierce BCA Protein Assay (Thermo Fisher Scientific). 30 μg of protein was loaded onto 12% SDS-PAGE gels or 4-15% Mini-PROTEAN TGX precast gradient gels (Bio-Rad), transferred onto nitrocellulose membranes, and probed with the specified primary antibodies overnight with rocking at 4° C. in 1×TBS-T containing 5% non-fat milk.
Either anti-rabbit or anti-mouse HRP-conjugated secondary antibodies (Pierce) were incubated with the membranes for 1 h at room temperature at 1:10,000 dilutions in 5% non-fat milk in IX TBS-T. Imaging was performed using the ECL Prime chemiluminescent western blot detection reagents (Amersham) followed by visualization with the Bio-Rad ChemiDoc imaging instrument. All western blots were subsequently processed and quantified using the accompanying Bio-Rad Image Lab software. Primary antibodies used were: Anti-actin antibody (Cat. #MA 1-744) purchased from ThermoFisher Scientific; anti-BTK (Cat. #8547), anti-pBTK (Y223, Cat. #5082), anti-ITK (Cat. #2380), anti-GAPDH (Cat. #5179), anti-IKZF1 (Cat. #9034), and anti-IKZF3 (Cat. #15103) antibodies purchased from Cell Signaling Technology. All antibodies were used at 1:1,000 dilutions in 5% non-fat milk in 1×TBS-Tween (TBS-T) or Blotto blocker (Thermo Scientific) unless otherwise noted in supplier specifications.

C481S BTK = C481S BTK (Homo sapiens, UniProt Q06187, C481S); experiment: In vitro kinase inhibition, recombinant C481S BTK, 10 μM ATP
Sequence of C481S BTK (Q06187 whole entry C481S): as the sequence (Q06187 whole entry) above, with C481S counted along it

JAK3 = molecular target: T2, JAK3 (Homo sapiens, UniProt P52333); experiment: KINOMEscan competition binding assay, JAK3; conditions: read-out: KINOMEscan percentage of control, JAK3
T2 construct: purchased DiscoverX (KINOMEscan service)
T2 sequence (P52333 811-1124 limits assumed): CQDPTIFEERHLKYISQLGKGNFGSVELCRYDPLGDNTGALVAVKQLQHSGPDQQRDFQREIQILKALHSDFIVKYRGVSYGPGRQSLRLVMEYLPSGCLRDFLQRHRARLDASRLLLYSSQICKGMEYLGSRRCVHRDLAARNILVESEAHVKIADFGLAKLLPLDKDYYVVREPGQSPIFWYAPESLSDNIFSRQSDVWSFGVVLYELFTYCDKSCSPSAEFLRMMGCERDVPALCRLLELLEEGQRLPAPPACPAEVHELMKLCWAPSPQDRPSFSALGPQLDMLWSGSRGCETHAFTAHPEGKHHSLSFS

ITK = molecular target: T3, ITK (Homo sapiens, UniProt Q08881); experiment: KINOMEscan competition binding assay, ITK; set-up: purchased DiscoverX (KINOMEscan service); conditions: read-out: KINOMEscan percentage of control, ITK
T3 sequence (Q08881 1-620): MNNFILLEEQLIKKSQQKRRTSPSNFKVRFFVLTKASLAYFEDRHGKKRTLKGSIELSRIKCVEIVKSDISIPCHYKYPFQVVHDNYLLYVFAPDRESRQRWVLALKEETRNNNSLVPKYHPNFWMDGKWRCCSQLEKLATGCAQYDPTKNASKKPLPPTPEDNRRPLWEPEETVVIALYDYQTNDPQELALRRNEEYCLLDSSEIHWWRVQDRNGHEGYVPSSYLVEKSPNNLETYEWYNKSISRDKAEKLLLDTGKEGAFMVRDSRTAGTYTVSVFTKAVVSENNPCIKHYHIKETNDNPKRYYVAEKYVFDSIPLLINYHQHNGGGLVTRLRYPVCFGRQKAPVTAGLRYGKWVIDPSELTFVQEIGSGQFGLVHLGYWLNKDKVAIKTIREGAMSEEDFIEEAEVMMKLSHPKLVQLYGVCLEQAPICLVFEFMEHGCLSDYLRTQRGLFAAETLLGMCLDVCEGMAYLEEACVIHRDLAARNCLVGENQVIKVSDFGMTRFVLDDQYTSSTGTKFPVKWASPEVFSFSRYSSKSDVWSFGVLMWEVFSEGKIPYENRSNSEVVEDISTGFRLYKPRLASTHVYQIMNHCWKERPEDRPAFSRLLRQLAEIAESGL

MKK7 = molecular target: T4, MKK7 (Homo sapiens, UniProt O14733); experiment: KINOMEscan competition binding assay, MKK7; conditions: read-out: KINOMEscan percentage of control, MKK7
T4 construct: purchased DiscoverX (KINOMEscan service)
T4 sequence (O14733 1-419): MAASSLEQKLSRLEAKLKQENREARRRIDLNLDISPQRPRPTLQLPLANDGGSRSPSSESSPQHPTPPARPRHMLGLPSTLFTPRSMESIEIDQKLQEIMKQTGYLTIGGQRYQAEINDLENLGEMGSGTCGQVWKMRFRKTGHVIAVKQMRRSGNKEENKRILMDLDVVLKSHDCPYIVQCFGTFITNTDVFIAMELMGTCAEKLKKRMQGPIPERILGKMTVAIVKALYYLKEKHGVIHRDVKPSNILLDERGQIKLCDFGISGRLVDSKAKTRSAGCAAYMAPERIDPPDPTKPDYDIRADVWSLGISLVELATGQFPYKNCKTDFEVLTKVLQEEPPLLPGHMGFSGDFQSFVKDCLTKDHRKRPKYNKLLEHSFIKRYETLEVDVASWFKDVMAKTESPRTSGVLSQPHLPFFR

BLK = BLK (Homo sapiens, UniProt P51451); experiment: KINOMEscan competition binding assay, BLK; conditions: read-out: KINOMEscan percentage of control, BLK
Sequence of BLK (P51451 whole entry): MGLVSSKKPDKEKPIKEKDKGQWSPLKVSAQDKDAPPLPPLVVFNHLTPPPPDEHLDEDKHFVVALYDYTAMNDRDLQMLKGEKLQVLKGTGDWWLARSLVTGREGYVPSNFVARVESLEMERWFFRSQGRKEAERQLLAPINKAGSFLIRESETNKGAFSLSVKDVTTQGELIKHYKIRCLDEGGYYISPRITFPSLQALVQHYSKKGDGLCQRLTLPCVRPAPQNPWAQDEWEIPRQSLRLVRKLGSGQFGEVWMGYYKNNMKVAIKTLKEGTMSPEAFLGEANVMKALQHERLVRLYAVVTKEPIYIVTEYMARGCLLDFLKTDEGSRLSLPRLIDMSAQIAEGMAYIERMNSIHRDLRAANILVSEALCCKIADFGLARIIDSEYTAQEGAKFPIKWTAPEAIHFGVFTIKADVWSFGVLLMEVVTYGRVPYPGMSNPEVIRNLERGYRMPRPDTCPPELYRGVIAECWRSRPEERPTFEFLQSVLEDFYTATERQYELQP

TEC = molecular target: T5, TEC (Homo sapiens, UniProt P42680); experiment: KINOMEscan competition binding assay, TEC; conditions: read-out: KINOMEscan percentage of control, TEC
T5 sequence (P42680 1-631): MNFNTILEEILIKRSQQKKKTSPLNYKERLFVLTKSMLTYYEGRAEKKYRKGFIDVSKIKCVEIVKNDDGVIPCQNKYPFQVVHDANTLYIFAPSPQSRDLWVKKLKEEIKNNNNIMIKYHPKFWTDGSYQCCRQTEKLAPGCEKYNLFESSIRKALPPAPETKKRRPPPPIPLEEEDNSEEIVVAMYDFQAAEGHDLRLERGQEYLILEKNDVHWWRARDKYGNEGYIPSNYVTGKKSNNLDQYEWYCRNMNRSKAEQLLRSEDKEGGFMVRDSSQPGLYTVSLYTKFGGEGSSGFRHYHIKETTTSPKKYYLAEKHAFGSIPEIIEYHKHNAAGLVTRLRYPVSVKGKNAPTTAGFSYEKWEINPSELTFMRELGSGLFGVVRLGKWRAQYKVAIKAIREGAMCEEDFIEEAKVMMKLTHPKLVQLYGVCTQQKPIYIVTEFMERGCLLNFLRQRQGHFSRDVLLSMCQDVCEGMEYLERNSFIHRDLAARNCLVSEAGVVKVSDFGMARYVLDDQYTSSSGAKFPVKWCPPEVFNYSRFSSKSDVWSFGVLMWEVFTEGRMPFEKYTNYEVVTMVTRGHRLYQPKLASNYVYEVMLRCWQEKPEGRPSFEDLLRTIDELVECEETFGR

SMILES | HER3 Degradation (HER3) | DC50 (BTK) | also measured
Cc1ncsc1-c1ccc(CNC(=O)[C@@H]2C[C@@H](O)CN2C(=O)[C@@H](NC(=O)COCCOCCOCCOCCOCCCCCCN2CCC(n3nc(-c4ccc(Oc5ccccc5)cc4)c4c(N)ncnc43)CC2)C(C)(C)C)cc1 [Compound 118, (2S,4R)-1-((S)-25-(4-(4-amino-3-(4-phenoxyphenyl)-1H-pyrazolo[3,4-d]pyrimidin-1-yl)piperidin-1-yl)-2,2-dimethyl-5-oxo-7,10,13,16,19-pentaoxa-4-azapentacosanecarbonyl)-4-hydroxy-N-(4-(4-methylthiazol-5-yl)benzyl)pyrrolidine-2-carboxamide] | No |  | DC50 (BTK; read-out: DC50): 231 nM; Max (BTK; maximal BTK degradation, at 1.0 μM): 40%
C=CC(=O)Nc1cc(-c2nn(C3CCN(CCCOCCCOCCC(=O)Nc4cccc5c4C(=O)N(C4CCC(=O)NC4=O)C5=O)CC3)c3ncnc(N)c23)ccc1Oc1ccccc1 (centres unmarked) [Compound 121, N-(5-(4-amino-1-(1-(3-(3-(3-(2-(2,6-dioxopiperidin-3-yl)-1,3-dioxoisoindolin-4-ylamino)-3-oxopropoxy)propoxy)propyl)piperidin-4-yl)-1H-pyrazolo[3,4-d]pyrimidin-3-yl)-2-phenoxyphenyl)acrylamide] | No | No Degradation | 
C=CC(=O)Nc1cc(-c2nn(C3CCN(CCCCOCCCCOCC(=O)Nc4cccc5c4C(=O)N(C4CCC(=O)NC4=O)C5=O)CC3)c3ncnc(N)c23)ccc1Oc1ccccc1 (centres unmarked) [Compound 122, N-(5-(4-amino-1-(1-(4-(4-(2-(2-(2,6-dioxopiperidin-3-yl)-1,3-dioxoisoindolin-4-ylamino)-2-oxoethoxy)butoxy)butyl)piperidin-4-yl)-1H-pyrazolo[3,4-d]pyrimidin-3-yl)-2-phenoxyphenyl)acrylamide] | No | No Degradation | 
Nc1ncnc2c1c(-c1ccc(Oc3ccccc3)cc1)nn2C1CCNCC1 [compound 1, 3-(4-phenoxyphenyl)-1-(piperidin-4-yl)-1H-pyrazolo[3,4-d]pyrimidin-4-amine hydrochloride, reference compound] |  |  | inhibition potency against C481S mutant BTK (C481S BTK): retained inhibition potency
C=CC(=O)N1CCC[C@@H](n2nc(-c3ccc(Oc4ccccc4)cc3)c3c(N)ncnc32)C1 [ibrutinib, reference compound] |  |  | remaining binding at 1 µM (JAK3): < 10%; remaining binding at 1 µM (ITK): < 10%; remaining binding at 1 µM (MKK7): < 10%; remaining binding at 1 µM (BLK): 0.1%; remaining binding at 1 µM (TEC): 1.9%

More lines, main results first:

HER3 Degradation (HER3) | DC50 (BTK) | SMILES | also measured
No | No Degradation | Cc1ncsc1-c1ccc(CNC(=O)[C@@H]2C[C@@H](O)CN2C(=O)[C@@H](NC(=O)CCCCCOCCOCCOCCOCCCCCCN2CCC(n3nc(-c4ccc(Oc5ccccc5)cc4)c4c(N)ncnc43)CC2)C(C)(C)C)cc1 [Compound 119, (2S,4R)-1-((S)-26-(4-(4-amino-3-(4-phenoxyphenyl)-1H-pyrazolo[3,4-d]pyrimidin-1-yl)piperidin-1-yl)-2,2-dimethyl-5-oxo-11,14,17,20-tetraoxa-4-azahexacosanecarbonyl)-4-hydroxy-N-(4-(4-methylthiazol-5-yl)benzyl)pyrrolidine-2-carboxamide] | 
No | No Degradation | Cc1ncsc1-c1ccc(CNC(=O)[C@@H]2C[C@@H](O)CN2C(=O)[C@@H](NC(=O)CCCCCOCCOCCOCCOCCOCCCCCCN2CCC(n3nc(-c4ccc(Oc5ccccc5)cc4)c4c(N)ncnc43)CC2)C(C)(C)C)cc1 [Compound 120, (2S,4R)-1-((S)-29-(4-(4-amino-3-(4-phenoxyphenyl)-1H-pyrazolo[3,4-d]pyrimidin-1-yl)piperidin-1-yl)-2,2-dimethyl-5-oxo-11,14,17,20,23-pentaoxa-4-azanonacosanecarbonyl)-4-hydroxy-N-(4-(4-methylthiazol-5-yl)benzyl)pyrrolidine-2-carboxamide] | 
